Test results reported in ChEMBL document CHEMBL5584275, “Design, Synthesis, and Evaluation of a New Chemotype Fluorescent Ligand for the P2Y2 Receptor” (ACS Med Chem Lett, 2024).
pKd, pKi: −log10 of the molar value. One block for each compound: values may come before it.

Columns and labels:
P2Y purinoceptor 2 [1] = target: T1, P2Y purinoceptor 2 (Homo sapiens, UniProt P41231); experiment: Displacement of 2-((5-(7-chloro-2-((3-((2-(5-(3-(5,5-difluoro-7,9-dimethyl-5H-4lambda4,5lambda4-dipyrrolo[1,2-c:2',1'-f][1,3,2]diazaborinin-3-yl)propanamido)pentanamido)ethyl)amino)-3-oxopropyl)amino)-4H-benzo[5,6]cyclohepta[1,2-d]thiazol-4-yl)-2-oxo-4-thioxo-3,4-dihydropyrimidin-1(2H)-yl)methyl)-N-(1H-tetrazol-5-yl)thiazole-4-carboxamide from NLuc fused P2Y2R (unknown origin) extracted from 1321N1 cell membrane incubated for 1 hr by NanoBRET assay
P2Y purinoceptor 2 [2] = target: T1, P2Y purinoceptor 2
Description: Binding affinity to NanoLuc-fused P2Y2R (unknown origin) extracted from 1321N1 cell membrane incubated for 1 hr by NanoBRET assay

P2Y purinoceptor 2 [3] = target: T1, P2Y purinoceptor 2; remark: listed apart in the source
Description: Displacement of (E)-N6-(5-(bis(4-chlorophenyl)methyl)thiazol-2-yl)-N2-(6-(2-(4-(2-(5,5-difluoro-7-(thiophen-2-yl)-5H-4lambda4,5lambda4-dipyrrolo[1,2-c:2',1'-f][1,3,2]diazaborinin-3-yl)vinyl)phenoxy)acetamido)hexanoyl)-L-lysine from NLuc fused P2Y2R (unknown origin) extracted from 1321N1 cell membrane incubated for 1 hr by NanoBRET assay

T1 sequence (P41231 whole entry, the tested form may be a part): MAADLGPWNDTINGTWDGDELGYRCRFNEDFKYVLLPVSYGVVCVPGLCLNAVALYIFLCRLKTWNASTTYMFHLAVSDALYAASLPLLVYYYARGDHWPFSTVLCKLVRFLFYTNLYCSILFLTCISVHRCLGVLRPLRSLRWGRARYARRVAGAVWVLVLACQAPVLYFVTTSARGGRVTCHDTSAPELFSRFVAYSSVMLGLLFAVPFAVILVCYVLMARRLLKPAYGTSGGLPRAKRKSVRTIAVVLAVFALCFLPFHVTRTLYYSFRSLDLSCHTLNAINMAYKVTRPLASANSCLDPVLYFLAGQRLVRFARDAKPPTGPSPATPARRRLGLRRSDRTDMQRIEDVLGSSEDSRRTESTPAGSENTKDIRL

Compound: O=C(COc1ccc(/C=C/C2=[N+]3C(=Cc4ccc(-c5cccs5)n4[B-]3(F)F)C=C2)cc1)NCCCCCC(=O)N[C@@H](CCCNc1ncc(C(c2ccc(Cl)cc2)c2ccc(Cl)cc2)s1)C(=O)O
pKi (P2Y purinoceptor 2 [1]): 5.48
pKd (P2Y purinoceptor 2 [2]): 6.02

Compound: O=C(COc1ccc(/C=C/C2=[N+]3C(=Cc4ccc(-c5cccs5)n4[B-]3(F)F)C=C2)cc1)NCCCCCC(=O)N[C@@H](CCNc1ncc(C(c2ccc(Cl)cc2)c2ccc(Cl)cc2)s1)C(=O)O
pKd (P2Y purinoceptor 2 [2]): 5.64

Next, values leading:

pKd (P2Y purinoceptor 2 [2]): 5.38
Compound: CN(C)c1ccc2c(-c3ccc(C(=O)N[C@@H](CCCNc4ncc(C(c5ccc(Cl)cc5)c5ccc(Cl)cc5)s4)C(=O)O)cc3C(=O)[O-])c3ccc(=[N+](C)C)cc-3oc2c1

pKi (P2Y purinoceptor 2 [1]): ~3.00
Compound: CCOCCNc1ncc(C(c2ccc(Cl)cc2)c2ccc(Cl)cc2)s1

pKi (P2Y purinoceptor 2 [3]): 5.04
Compound: CCOCCNc1nc2c(s1)C=Cc1cc(Cl)ccc1[C@@H]2c1cn(C)c(=O)[nH]c1=S (racemic)
